Laboratory results published in paper PMC7751951 (Cancer chemotherapy and pharmacology, 2015).

What was measured:
[1] = system: recurrent or refractory solid tumors; test: Tumor response; format: in vivo, human (children and adolescents)
[2] = early clinical trials in adults; cited from earlier work
[3] = Plasma pharmacokinetics of tariquidar alone; format: in vivo, human (children and adolescents); conditions: human, intravenous, tariquidar in combination with chemotherapy, at all dose levels
[4] = human, in vivo, 21 days
[5] = adults, 2 mg/kg IV over 30 min; cited from earlier work
Pgp = conditions: adults, 2 mg/kg IV over 30 min; rhodamine uptake in CD56+ lymphocytes; cited from earlier work
[6] = system: Breast Cancer Resistance Protein (BCRP/ABCG2); conditions: cited from earlier work
[7] = system: ATPase activity of the Pgp drug efflux pump; conditions: introduction statement, no reference given; cited from earlier work
[8] = cited from earlier work
[9] = Toxicity, DLT and MTD in phase I trial
[10] = single-agent docetaxel 150–235 mg/m^2, children and adolescents with refractory solid tumors; cited from earlier work

For `COc1cccc2c1C(=O)c1c(O)c3c(c(O)c1C2=O)C[C@@](O)(C(=O)CO)C[C@@H]3O[C@H]1C[C@H](N)[C@H](O)[C@H](C)O1` [Doxorubicin], which Response ([1]; person, metastatic adrenocortical carcinoma, two cycles of tariquidar in combination with doxorubicin) is on record?
The Response was “partial response”.

And the “Best response [cycle]” value ([1]; subject 014, rhabdomyosarcoma, with tariquidar 2 mg/kg)?
The value was “partial response”.

What about the “increase of systemic exposure in combination with tariquidar” value [2] of the same compound?
The value was 26%.

What does the source list for `CCC1=C[C@@H]2CN(C1)Cc1c([nH]c3ccccc13)[C@@](C(=O)OC)(c1cc3c(cc1OC)N(C)[C@H]1[C@@](O)(C(=O)OC)[C@H](OC(C)=O)[C@]4(CC)C=CCN5CC[C@]31[C@@H]54)C2` [Vinorelbine]?
Best response [cycle] ([1]; subject 009, pancreatoblastoma, with tariquidar 1.5 mg/kg): complete radiographic response; change in pharmacokinetics in combination with tariquidar [2]: No change

For `CC(=O)O[C@H]1C(=O)[C@@]2(C)[C@H]([C@H](OC(=O)c3ccccc3)[C@]3(O)C[C@H](OC(=O)[C@H](O)[C@@H](NC(=O)c4ccccc4)c4ccccc4)C(C)=C1C3(C)C)[C@]1(OC(C)=O)CO[C@@H]1C[C@@H]2O` [paclitaxel], which “increase of systemic exposure in combination with tariquidar” value [2] is on record?
Its value is 44%.

Which results are given for `COc1cc2c(cc1OC)CN(CCc1ccc(NC(=O)c3cc(OC)c(OC)cc3NC(=O)c3cnc4ccccc4c3)cc1)CC2` [Tariquidar]?
Cmax [3]: > 2000 nM; tariquidar-related dysgeusia (n = 3), grade [4]: 1; tariquidar-related hypotension (n = 2), grade [4]: 2; tariquidar-related nausea (n = 1), grade [4]: 1; tariquidar-related peripheral edema (n = 1), grade [4]: 2; tariquidar-related pruritus (n = 1), grade [4]: 1; area under the concentration time curve (AUC0–48) [5]: 12.6 µM·h; clearance [5]: 160 mL/min/m^2; half-life [5]: 26 h; time for which maximum inhibition of Pgp was maintained (Pgp): 24 h; inhibition of Breast Cancer Resistance Protein (BCRP/ABCG2) [6]: inhibit; effect on ATPase activity of the Pgp drug efflux pump [7]: inhibits; tolerability in adults [8]: well tolerated; maximum tolerated dose of tariquidar ([9]; escalation up to 2 mg/kg): No maximum tolerated dose was achieved

What does the source list for `CC(=O)O[C@@]12CO[C@@H]1C[C@H](O)[C@@]1(C)C(=O)[C@H](O)C3=C(C)[C@@H](OC(=O)[C@H](O)[C@@H](NC(=O)OC(C)(C)C)c4ccccc4)C[C@@](O)([C@@H](OC(=O)c4ccccc4)[C@H]21)C3(C)C` [Docetaxel]?
platelet counts less than 50,000/μL [10]: not observed; participants with grade 3 thrombocytopenia (platelet count ≥10,000, <50,000/μL) ([9]; docetaxel in combination with tariquidar, three of nine participants): 33%
